The record followed here is patent publication US10214544B2, “Imidazopyridazine and imidazothiadiazole compounds” (Universite de Montreal, priority 2015, dated 2019).

The target of the experiment is PAR4 (Homo sapiens (Human), UniProt Q96RI0). Put plainly: FLIPR assay in PAR4-expressing HEK293 cells (PAR4 antagonist activity). In kind it is cell-based. Particulars: inhibition of H-Ala-Phe(4-F)-Pro-Gly-Trp-Leu-Val-Lys-Asn-Gly-NH2-induced intracellular calcium mobilization. The text has this:
The FLIPR assay is an exemplary in vitro assay for measuring the activity of the PAR4 antagonists of the present invention. In this assay, intracellular calcium mobilization is induced in PAR4 expressing cells by a PAR4 agonist and calcium mobilization is monitored. See, e.g., Example A.
HEK293 cells stably expressing PAR4 were generated by a standard method of transfection of human PAR4 (F2R23) cDNA expression vector and selected based on PAR4 protein expression or mRNA expression. […] These cells also express endogenous PAR1 and can elicit calcium signal upon stimulation with PAR1 agonist peptide. Therefore, the same cells were also used to determine selectivity against PAR1 and agonist activity for both receptors. Cells from HEK293 PAR4 Clone 1.2A (BMS Arctic ID 383940) were propagated and used for calcium mobilization studies.
FLIPR-based calcium mobilization assay in HEK293 cells was used to measure PAR4 antagonism, agonism, and selectivity against PAR1. The activity of the PAR4 antagonists of the present invention were tested in PAR4 expressing cells by monitoring H-Ala-Phe(4-F)-[…]NH2-induced intracellular calcium mobilization. Counter screens for agonist activity and PAR1 antagonist activity were also performed. Briefly, PAR1/PAR4-expressing HEK293 cells were grown in DMEM (Life Technology, Grand Island, N.Y.) containing 10% heat-inactivated FBS, 1% Penicillin-Streptomycin, 10 μg/mL blasticidin, and 100 μg/mL Zeocin at 37° C. with 5% CO2. Cells were plated overnight prior to the experiment in a black 384-well Purecoat Amine clear bottom plate (Becton Dickinson Biosciences, San Jose, Calif.) at 10,000 cells/well in 30 μL growth medium and incubated in a humidified chamber at 37° C. with 5% CO2 overnight. Prior to compound addition, the cell medium was replaced with […] of 1× calcium and magnesium-containing Hank's Balanced Saline Solution (HBSS) (with 20 mM HEPES) and 1:1000 diluted fluorescent calcium indicator (Codex Biosolutions, Gaithersburg, Md.). After a 30 minute incubation period at 37° C. and a further 30 minute incubation and equilibration period at room temperature, 20 μL test compound (diluted in 1× HBSS buffer) was added at various concentrations at 0.17% dimethyl sulfoxide (DMSO) final concentration. Changes in fluorescence intensity were measured using a Functional Drug Screening System (FDSS, Hamamatsu, Japan) to determine agonist activities. The cells were then incubated for 30 minutes at room temperature followed by addition of 20 μL of agonist peptide for antagonist activity measurement. […] Compound potency was derived from 11-point concentration-response curves.
The following Table sets out results obtained employing various compounds of the invention tested in the FLIPR assay. As indicated above, the FLIPR assay, an in vitro assay, measures the PAR4 antagonist activity of compounds tested as described in Example A.

Sequence of PAR4 (Q96RI0 18-385): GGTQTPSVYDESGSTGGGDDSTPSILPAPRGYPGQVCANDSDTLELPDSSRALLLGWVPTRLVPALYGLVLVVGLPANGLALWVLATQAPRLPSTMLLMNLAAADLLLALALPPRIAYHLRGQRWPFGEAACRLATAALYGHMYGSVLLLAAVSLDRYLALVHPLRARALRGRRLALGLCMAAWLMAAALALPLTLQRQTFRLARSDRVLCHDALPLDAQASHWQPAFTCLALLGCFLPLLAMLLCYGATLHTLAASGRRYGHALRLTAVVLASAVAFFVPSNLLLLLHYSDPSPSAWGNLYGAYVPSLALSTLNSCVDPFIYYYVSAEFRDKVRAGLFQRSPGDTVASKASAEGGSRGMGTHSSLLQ

`COc1cc(OCc2cccc(NC(=O)COCc3ccccc3)c2)c2cc(-c3cn4nc(OC)sc4n3)oc2c1` [Example 17]: the EC50 (usually the concentration at which the effect is half-maximal) turned out to be 0.55 nM. Under `COc1cc(OCc2cccc(NC(=O)c3ccno3)c2)c2cc(-c3cn4nc(OC)sc4n3)oc2c1` [Example 155] stands 2.3 nM; under `COc1cc(OCc2cccc(N(C)C(=O)c3ccc(OC)nc3)c2)c2cc(-c3cn4nc(OC)sc4n3)oc2c1` [Example 90], 1.1 nM; under `CCCc1ccc(C(=O)Nc2cccc(COc3cc(OC)cc4oc(-c5cn6nc(OC)sc6n5)cc34)c2)cc1` [Example 31], 1.3 nM. The value for `COc1cc(OCc2cccc(NC(=O)c3ccnnc3)c2)c2cc(-c3cn4nc(OC)sc4n3)oc2c1` [Example 69] was 12 nM; that for `COc1cc(OCc2cccc3c2CCN3C(=O)c2ccccc2C)c2cc(-c3cn4nc(OC)sc4n3)oc2c1` [Example 122] was 5 nM. Under `COc1cc(OCc2cccc(NS(=O)(=O)c3ccccc3)c2)c2cc(-c3cn4nc(OC)sc4n3)oc2c1` [Example 7, N-(3-(((6-methoxy-2-(2-methoxyimidazo[2,1-b][1,3,4]thiadiazol-6-yl)benzofuran-4-yl)oxy)methyl)phenyl)benzenesulfonamide] stands 10 nM; under `COc1cc(OCc2cccc(NC(=O)c3ccccc3I)c2)c2cc(-c3cn4nc(OC)sc4n3)oc2c1` [Example 24], 1.4 nM. Regarding `COc1cc(OCc2cccc(N(C)C(=O)c3ccccc3F)c2)c2cc(-c3cn4nc(OC)sc4n3)oc2c1` [Example 88], the EC50 was 3.3 nM. `COc1cc(Cl)cc(C(=O)Nc2cccc(COc3cc(OC)cc4oc(-c5cn6nc(OC)sc6n5)cc34)c2)c1` [Example 63]: the EC50 was found to be 1.4 nM. Regarding `COc1cccc(C(=O)Nc2cccc(COc3cc(OC)cc4oc(-c5cn6nc(OC)sc6n5)cc34)c2)c1` [Example 160], the EC50 was found to be 36 nM. Consider `COc1cc(OCc2cccc(NC(=O)c3cccc(-c4ccccc4)c3)c2)c2cc(-c3cn4nc(OC)sc4n3)oc2c1` [Example 158], for which the EC50 was determined as 12 nM. Consider `COC(=O)c1ccc(C(=O)Nc2cccc(COc3cc(OC)cc4oc(-c5cn6nc(OC)sc6n5)cc34)c2)cc1` [Example 34], for which the EC50 stood at 1.2 nM. The value for `COc1cc(OCc2cccc(NC(=O)c3cc(F)ccc3F)c2)c2cc(-c3cn4nc(OC)sc4n3)oc2c1` [Example 154] was 2.2 nM; that for `COc1cc(OCc2cccc(N(C)C(=O)OC(C)(C)C)c2)c2cc(-c3cn4nc(OC)sc4n3)oc2c1` [Example 81, tert-Butyl (3-(((6-methoxy-2-(2-methoxyimidazo[2,1-b][1,3,4]thiadiazol-6-yl)benzofuran-4-yl)oxy)methyl)phenyl)(methyl)carbamate] was 4.8 nM; that for `COc1cc(OCc2cccc(NC(=O)c3cc(F)cc(OC(F)(F)F)c3)c2)c2cc(-c3cn4nc(OC)sc4n3)oc2c1` [Example 76] was 2.5 nM. Consider `COc1cc(OCc2cccc(NC(=O)c3cccn3C)c2)c2cc(-c3cn4nc(OC)sc4n3)oc2c1` [Example 132], for which the EC50 is 3.8 nM. For `COc1cc(OCc2ccc3c(c2)N(C(C)=O)CC3)c2cc(-c3cn4nc(OC)sc4n3)oc2c1` [Example 107], the EC50 is 26 nM. As for `COc1cc(OCc2cccc(NC(=O)NCc3ccccc3)c2)c2cc(-c3cn4nc(OC)sc4n3)oc2c1` [Example 38], the EC50 amounted to 4.8 nM. On to `COc1cc(OCc2cccc(NC(=O)c3cccc(C(F)(F)F)c3)c2)c2cc(-c3cn4nc(OC)sc4n3)oc2c1` [Example 149], for which the EC50 was found to be 2 nM. Take `COc1cc(OCc2cccc(NC(=O)C3CCCCC3)c2)c2cc(-c3cn4nc(OC)sc4n3)oc2c1` [Example 150]: the EC50 came to 2.3 nM. `COc1cc(OC(F)F)cc(C(=O)Nc2cccc(COc3cc(OC)cc4oc(-c5cn6nc(OC)sc6n5)cc34)c2)c1` [Example 78]: the EC50 came out at 2.3 nM.

For the compound `COc1cc(OCc2cccc(NC(=O)c3ccc(C)cc3)c2)c2cc(-c3cn4nc(OC)sc4n3)oc2c1` [Example 32], the EC50 is 1.6 nM. In the case of `COc1cc(OCc2cccc(NC(=O)c3ccc(C#N)cc3)c2)c2cc(-c3cn4nc(OC)sc4n3)oc2c1` [Example 36], the EC50 worked out at 2.5 nM. With `COc1cc(OCc2cccc(NC(=O)c3cc(OC(F)F)cc(C(F)(F)F)c3)c2)c2cc(-c3cn4nc(OC)sc4n3)oc2c1` [Example 74], the EC50 came to 0.95 nM. For `COc1cc(OCc2cccc(NC(=O)c3ccc(OC(F)(F)F)cc3)c2)c2cc(-c3cn4nc(OC)sc4n3)oc2c1` [Example 41], the EC50 amounted to 1.4 nM.

Turning to `COc1cc(OCc2cccc(NC(=O)CC3CCCCC3)c2)c2cc(-c3cn4nc(OC)sc4n3)oc2c1` [Example 146], the EC50 came to 7.5 nM. For `COc1cc(OCc2cccc(NC(=O)CC3CCCC3)c2)c2cc(-c3cn4nc(OC)sc4n3)oc2c1` [Example 138], the EC50 amounted to 2.5 nM. For `COc1cc(OCc2cccc(NC(=O)c3c(F)cc(F)cc3F)c2)c2cc(-c3cn4nc(OC)sc4n3)oc2c1` [Example 21], the EC50 came to 1.5 nM. For `COc1cc(OCc2ccc3c(c2)N(C(=O)c2ccc(C)cc2)CC3)c2cc(-c3cn4nc(OC)sc4n3)oc2c1` [Example 105], the EC50 came to 3.4 nM.

Turning to `COc1cc(OCc2ccc3c(c2)N(C(=O)c2ccccc2F)CC3)c2cc(-c3cn4nc(OC)sc4n3)oc2c1` [Example 104], the EC50 turned out to be 2.2 nM.

Take `CNc1cccc(COc2cc(OC)cc3oc(-c4cn5nc(OC)sc5n4)cc23)c1` [Example 82, 3-(((6-Methoxy-2-(2-methoxyimidazo[2,1-b][1,3,4]thiadiazol-6-yl)benzofuran-4-yl)oxy)methyl)-N-methylaniline]: the EC50 worked out at 5.2 nM. On to `COc1cc(OCc2ccc3c(c2)N(C(=O)c2cc(C)cc(C(F)(F)F)c2)CC3)c2cc(-c3cn4nc(OC)sc4n3)oc2c1` [Example 111], for which the EC50 is 6 nM. As for `COc1cc(OCc2ccc3c(c2)N(C(=O)c2cccc(F)c2)CC3)c2cc(-c3cn4nc(OC)sc4n3)oc2c1` [Example 102], the EC50 turned out to be 4.1 nM. In the case of `COc1cc(OCc2cccc(NC(=O)c3ccc(F)c(F)c3F)c2)c2cc(-c3cn4nc(OC)sc4n3)oc2c1` [Example 14], the EC50 is 1.4 nM. Regarding `COc1cc(OCc2cccc3c2CCN3C(=O)c2ccc(C)cc2)c2cc(-c3cn4nc(OC)sc4n3)oc2c1` [Example 123], the EC50 was determined as 5 nM. The value for `COc1cc(OCc2cccc(NC(=O)c3cnoc3-c3ccccc3)c2)c2cc(-c3cn4nc(OC)sc4n3)oc2c1` [Example 60] was 2.9 nM. For the compound `COc1cc(OCc2cccc(NC(=O)c3ccc(C)nc3O)c2)c2cc(-c3cn4nc(OC)sc4n3)oc2c1` [Example 73], the EC50 came out at 3.6 nM. Consider `COc1cc(OCc2cccc(NC(=O)c3c(F)cccc3F)c2)c2cc(-c3cn4nc(OC)sc4n3)oc2c1` [Example 143], for which the EC50 was found to be 5.9 nM.

Turning to `COc1cc(OCc2cccc(NC(=O)c3ccc(C)c(F)c3)c2)c2cc(-c3cn4nc(OC)sc4n3)oc2c1` [Example 163], the EC50 was determined as 2.1 nM. Under `COc1cc(OCc2cccc(N(C)C(=O)c3ccccc3OC)c2)c2cc(-c3cn4nc(OC)sc4n3)oc2c1` [Example 86] stands 1.8 nM; under `COc1cc(OCc2cccc(NC(=O)c3cccc(C#N)c3)c2)c2cc(-c3cn4nc(OC)sc4n3)oc2c1` [Example 16], 1.4 nM; under `COc1cc(OCc2cccc(NC(=O)c3ccc(N(C)C)cc3)c2)c2cc(-c3cn4nc(OC)sc4n3)oc2c1` [Example 43], 1.6 nM. The value for `COc1cc(OCc2cccc(NC(=O)C(C)(C)Oc3ccccc3)c2)c2cc(-c3cn4nc(OC)sc4n3)oc2c1` [Example 40] was 1.4 nM. As for `COc1cc(OCc2cccc(NC(=O)c3csc(-c4ccc(F)cc4)n3)c2)c2cc(-c3cn4nc(OC)sc4n3)oc2c1` [Example 77], the EC50 was determined as 120 nM. Under `COc1cc(OCc2cccc(NC(=O)c3ccccc3Cl)c2)c2cc(-c3cn4nc(OC)sc4n3)oc2c1` [Example 25] stands 1.7 nM. Turning to `COc1cc(OCc2cccc3c2CCN3C(=O)c2ccccc2F)c2cc(-c3cn4nc(OC)sc4n3)oc2c1` [Example 120], the EC50 was 4.2 nM.

For the compound `COc1cc(OCc2cccc(NC(=O)c3cn4nc(C(C)(F)F)sc4n3)c2)c2cc(-c3cn4nc(OC)sc4n3)oc2c1` [Example 68], the EC50 was determined as 8.9 nM.
